Counter-ions that a name gives are not always drawn. Like-named read-outs stand apart in the source and are kept apart here.
Key:
blood glucose = conditions: single oral dose, 4 h after administration
Protocol: (§1) Four hours after administration of the test substances, the animals were decapitated. After deproteinization of the mixed blood with perchloric acid, glucose concentration was determined photometrically by the hexokinase method. Lactate concentration was determined photometrically with lactate dehydrogenase.

blood lactate = conditions: single oral dose, 4 h after administration
Protocol: as §1

Mouse = conditions: single daily oral administration for 10 days, 24 hours after the last administration
Rat = conditions: single daily oral administration for 10 days, 24 hours after the last administration
in vivo [1] = conditions: mouse, po, single daily oral administration for 10 days, 24 hours after the last administration
in vivo [2] = conditions: rat, po, single daily oral administration for 10 days, 24 hours after the last administration
[3] = 100 μmol/kg, listed as Hydrochloride of n-butylbiguanide
[4] = 300 μmol/kg, listed as Hydrochloride of n-butylbiguanide
[5] = 1000 μmol/kg, listed as Hydrochloride of n-butylbiguanide
[6] = 100 μmol/kg, listed as Bis-dichloroacetate of n-butylbiguanide
[7] = 300 μmol/kg, listed as Bis-dichloroacetate of n-butylbiguanide
[8] = 1000 μmol/kg, listed as Bis-dichloroacetate of n-butylbiguanide

| Compound | Blood glucose, % in controls (blood glucose; [3]) | Blood glucose, % in controls (blood glucose; [4]) | Blood glucose, % in controls (blood glucose; [5]) | Blood lactate, % in controls (blood lactate; [3]) | Blood lactate, % in controls (blood lactate; [4]) | Blood lactate, % in controls (blood lactate; [5]) | LD50 (Mouse) | LD50 (Rat) | Blood glucose, % in controls (blood glucose; [6]) | Blood glucose, % in controls (blood glucose; [7]) | Blood glucose, % in controls (blood glucose; [8]) | Blood lactate, % in controls (blood lactate; [6]) | Blood lactate, % in controls (blood lactate; [7]) | Blood lactate, % in controls (blood lactate; [8]) | LD50 (in vivo [1]) | LD50 (in vivo [2]) |
| --- | --- | --- | --- | --- | --- | --- | --- | --- | --- | --- | --- | --- | --- | --- | --- | --- |
| CCCCNC(=N)NC(=N)N [n-butylbiguanide hydrochloride, 1-butylbiguanide.HCl] | 76 % in controls | 68 % in controls | 35 % in controls | 123 % in controls | 114 % in controls | 254 % in controls | 1.37 ± 0.22 mmol/kg | 0.66 ± 0.10 mmol/kg |  |  |  |  |  |  |  |  |
| CCCCNC(=N)NC(=N)N [n-butylbiguanide bis-dichloroacetate, 1-butylbiguanide bis-(dichloroacetate)] |  |  |  |  |  |  |  |  | 69 % in controls | 62 % in controls | 37 % in controls | 91 % in controls | 100 % in controls | 106 % in controls | 1130 ± 180 µmol/kg | 1200 ± 200 µmol/kg |
